The source of these data is patent EP0423727B1, “Silver halide color photographic material containing colored coupler” (FUJI PHOTO FILM CO., LTD., priority 1989, dated 1991).

This data set is described as follows: spectral absorption of the colored coupler in methanol. The format is physicochemical. How it is done: 10.1 g of compound c synthesized by the method described in U.S. Patent 4,138,258 was dissolved in 60 ml of N,N-dimethylformamide and 60 ml of methyl cellosolve. While cooling the resulting solution with ice, 4.3 ml of concentrated hydrochloric acid was added thereto and a solution of 1.84 g of sodium nitrite in 5 ml of water was added dropwise thereto to prepare a diazonium solution. 60 ml of methyl cellosolve and 20 ml of water were added to 7.8 g of the compound b and 8.2 g of sodium acetate. While stirring the resulting solution under ice cooling, the above diazonium solution was added dropwise thereto. After dropwise addition, the mixture was stirred for one hour and then at room temperature for 2 hours. The precipitated crystal was recovered by filtration, washed with water, dried and dispersed in 500 ml of methanol. The dispersion was heated to reflux for one hour and then allowed to stand to cool it. The crystal was recovered by filtration, washed with methanol and dried to give 13.6 g of the desired coupler (1) as a red crystal with a melting point of 269 to 272°C (decomposition). The structure of the compound was confirmed by ¹HNMR spectrum, mass spectrum and elemental analysis.
75 ml of methyl cellosolve and 26 ml of water were added to 10.1 g of the compound b and 10.7 g of sodium acetate. While stirring the resulting solution under ice cooling, the above diazonium solution was added dropwise thereto. After dropwise addition, the mixture was stirred for one hour and then at room temperature for 2 hours. The precipitated crystal was recovered by filtration and dispersed in 200 ml of methanol. A solution of 2.2 g of sodium hydroxide in 10 ml of water was added dropwise thereto. The mixture was stirred for 3 hours and neutralized with concentrated hydrochloric acid. The precipitated crystal was washed with water and then methanol and dried. The resulting crude crystal was purified from hot methanol in the same manner as in Synthesis Example 1 to give 14.8 g of the desired coupler (3) with a melting point of 246 to 251°C (decomposition). […]

Regarding `CCCCCCCCC(CCCCCC)COCCCNC(=O)c1cc(OCCOc2ccc(N=Nc3c(C)c(C#N)c(=O)n(-c4ccccc4C(=O)O)c3O)cc2)c2ccccc2c1O` (stereo not drawn) [(22)], the “spectral absorption characteristics as a yellow colored coupler” value is “good”. Besides, under “in methanol”, the maximum absorption wavelength is recorded as 458.2 nm and the molecular extinction coefficient is given as 42800.
